Tests used:
Format in all cases: cell-based, human
[1] = tested on: NOS in HUVEC; assay: Mechanism study: NOS Activity Assay Kit with NOS and Sirt1 inhibitors; details: Saikosaponin C 20 μM, 33 mM high glucose 36 hours
Method: (§1) Similar to Experimental Example 1, a high-fat diet evaluation system at the cellular level was established. Specifically, […], which are vascular endothelial cells, were pretreated with Saikosaponin C at a concentration of 20 μM for 2 hours, and then treated with high glucose at a concentration of 33 mM for 72 hours (for SA-β-gal staining) or 36 hours (for the analysis of enzyme activity of NOS and Sirt1). Then, SA-β-gal staining, NOS enzyme activity, and Sirt1 enzyme activity were analyzed. To analyze whether or not NOS and Sirt1 protein are involved in the anti-vascular aging effect of Saikosaponin C and the relationship between NOS and Sirt1 protein, L-NG-nitro arginine methyl ester (L-NAME) (5 mM), an inhibitor of NOS, and EX-527 (10 μM), an inhibitor of Sirt1 protein, were used. […] The senescence of vascular endothelial cells was assessed through intracellular SA-β-gal staining (FIG. 8A). The activities of NOS (FIG. 8B) and Sirt1 protein (FIG. 8C) were measured using the NOS Activity Assay Kit and the Sirt1 Activity Assay Kit, respectively.

[2] = tested on: HUVEC; assay: Mechanism study: SA-β-gal staining with NOS and Sirt1 inhibitors; details: Saikosaponin C 20 μM, 33 mM high glucose 72 hours
Method: as §1

[3] = tested on: Sirt1 in HUVEC; assay: Mechanism study: Sirt1 Activity Assay Kit with NOS inhibitor; details: L-NAME 5 mM, Saikosaponin C 20 μM, 33 mM high glucose 36 hours
Method: as §1

Structure (SMILES) | Saikosaponin C-mediated recovery of the reduction in NOS activity caused by high glucose ([1]; EX-527 10 μM) | anti-vascular aging effect of Saikosaponin C (SA-β-gal) after inhibitor pretreatment ([2]; EX-527 10 μM) | Saikosaponin C-mediated recovery of the reduction in Sirt1 activity caused by high glucose [3] | Saikosaponin C-mediated recovery of the reduction in NOS activity caused by high glucose ([1]; L-NAME 5 mM) | anti-vascular aging effect of Saikosaponin C (SA-β-gal) after inhibitor pretreatment ([2]; L-NAME 5 mM)
NC(=O)C1CCCc2c1[nH]c1ccc(Cl)cc21 (centres unmarked) [EX-527] | abolished | significantly abolished |  |  | 
COC(=O)[C@@H](N)CCCNC(=N)N[N+](=O)[O-] [L-NAME, L-NG-nitro arginine methyl ester] |  |  | did not abolish | abolished | significantly abolished

— patent US20250177425A1, “SAIKOSAPONIN C AS COMPOSITION FOR TREATING OR PREVENTING AGE-RELATED VASCULAR DISEASES INCLUDING ARTERIOSCLEROSIS” (AGINGTARGET, INC., priority 2022, published 2025)
